Experimental findings from patent US20180236109A1, “Pain Tracking by PET-imaging (Pain-TraP)” (Universitat zu Koln, priority 2015, published 2018) are described below.

Experiment [1] concerns the target T1, PSMA (Mus musculus, UniProt O35409).
T1 construct: from tissue; host or cells: C57BL/6 mouse, in vivo (hindpaw, thigh/sciatic nerve lesion site, sciatic nerve plexus)
Briefly: micro-PET tracer uptake in sciatic nerve lesion (SNI) model of neuropathic pain. Type of experiment: in vivo, mice. The method, then: (§1) Experiments were performed in male 6- to 12-week-old C57BL/6 mice. Animals were housed on a 12/12 light/dark cycle with access to food and water ad libitum. All experiments adhered to the guidelines of the International Association for the Study of Pain and to the ARRIVE guidelines, and were approved by our local Ethics Committee for Animal Research.
Under isoflurane anesthesia, the tibial and common peroneal branches of the sciatic nerve were ligated and sectioned distally, while the sural nerve was left intact (Decosterd and Woolf, 2000); (Bourquin et al., 2006). Mechanical hypersensitivity at the lateral surface of the hindpaw (sural nerve skin area) was determined using a Dynamic Plantar Aesthesiometer as described above.
(§2) The animals were allowed to wake up in their home cage, where they remained for 50 min. Subsequently, mice were reanesthetized, killed to reduce the time of procedures on the living animal, and placed on a two-animal holder (Medres®). PET scans in list mode were performed using a Focus 220 micro PET scanner (CTI-Siemens®) with a resolution at center of field of view of 1.4 mm. Data acquisition started exactly one hour after [^18F]DCFPyL-injection and lasted […]. It was followed by a transmission scan using a ^57Co-point source for attenuation correction. Following Fourier rebinning, data were reconstructed using the iterative OSEM3D/MAP procedure (Qi et al., 1998) resulting in voxel sizes of 0.38×0.38×0.80 mm.
(§3) Four individual volumes of interest (VOIs, 24 mm^3 each) were drawn, two of which were placed over the left and right sciatic nerve plexus. The other two were positioned either over the sciatic nerve lesion in the thigh and the undamaged contra-lesional thigh (in case of SNI model), or over the hindpaws (in case of CFA model). […] The ratio of ipsi- and contralateral VOIs was calculated.
For each measurement a separate set of animals was used. […] To simplify the measurement methodology, animals were sacrificed instead of anaesthesized after 1 h and measured in a pPET. Images were analyzed for the section of maximal intensity at the site of injection, the respective areas quantified, and the ratio between ipsi- and contralateral side was calculated.
(§4) In the inflammatory pain model, “Complete Freunds Adjuvant (CFA)” was injected in the left hind paw, which leads to long-lasting inflammation and pain. To induce neuropathic pain in the “Spared nerve injury (SNI) model”, two branches of the sciatic nerve were ligated, while the third branch (the sural nerve) was left intact. In both models, pain sensitivity was measured using the Dynamic Plantar Test at the day before the PET scan. A movable force actuator was positioned below the plantar surface of the animal. A thin (0.5 mm) filament exerted increasing force, until the animal twitched its paw. The time it takes for the animal to retract its paw inversely reflects touch sensitivity.
(§5) On the next day, the PSMA tracer [^18F]DCFPyL was intravenously injected. After an uptake period of 60 min, an emission scan was performed for 30 min.

The target in experiment [2] is T1, PSMA. Description: micro-PET tracer uptake in Complete-Freund's-Adjuvant (CFA) model of inflammatory pain. Type of experiment: in vivo, mice. How it is done: as §1
The mechanical sensitivity of the plantar side of a hindpaw was assessed with an automated testing device (dynamic plantar aesthesiometer; Ugo Basile). This device pushes a thin probe (0.5 mm diameter) with increasing force through a wire-grated floor against the plantar surface of the paw from beneath, and it automatically stops and records the latency time after which the animal withdraws the paw. The force increased from 0 to 5 g within 10 s (0.5 g/s ramp) and was then held at 5 g for an additional 10 s (Schmidtko et al., 2008a). The paw withdrawal latency was taken to be the mean of three consecutive trials with at least 10 s in between. After baseline measurements, 20 al of complete Freund's adjuvant (CFA; containing 1 mg/ml heat-killed Mycobacterium tuberculosis in paraffin oil 85% and mannide monooleate 15%; Sigma-Aldrich) was injected into the plantar subcutaneous space of a hindpaw, and paw withdrawal latencies were determined at the indicated timepoints after CFA injection (Schmidtko et al., 2008b).
as §2, §3
Each measurement was taken on a separate set of animals. […] To simplify the measurement methodology, animals were sacrificed instead of anaesthesized after 1 h and measured in a iPET. Images were analyzed for the section of maximal intensity at the site of injection, the respective areas quantified, and the ratio between ipsi- and contralateral side calculated.
as §4, §5

[3] abbreviates: 10 MBq into tail vein, PET after 1 h.
[4] abbreviates: site of lesion, ipsi-/contralateral ratios, individual animals.

T1 sequence (O35409 whole entry): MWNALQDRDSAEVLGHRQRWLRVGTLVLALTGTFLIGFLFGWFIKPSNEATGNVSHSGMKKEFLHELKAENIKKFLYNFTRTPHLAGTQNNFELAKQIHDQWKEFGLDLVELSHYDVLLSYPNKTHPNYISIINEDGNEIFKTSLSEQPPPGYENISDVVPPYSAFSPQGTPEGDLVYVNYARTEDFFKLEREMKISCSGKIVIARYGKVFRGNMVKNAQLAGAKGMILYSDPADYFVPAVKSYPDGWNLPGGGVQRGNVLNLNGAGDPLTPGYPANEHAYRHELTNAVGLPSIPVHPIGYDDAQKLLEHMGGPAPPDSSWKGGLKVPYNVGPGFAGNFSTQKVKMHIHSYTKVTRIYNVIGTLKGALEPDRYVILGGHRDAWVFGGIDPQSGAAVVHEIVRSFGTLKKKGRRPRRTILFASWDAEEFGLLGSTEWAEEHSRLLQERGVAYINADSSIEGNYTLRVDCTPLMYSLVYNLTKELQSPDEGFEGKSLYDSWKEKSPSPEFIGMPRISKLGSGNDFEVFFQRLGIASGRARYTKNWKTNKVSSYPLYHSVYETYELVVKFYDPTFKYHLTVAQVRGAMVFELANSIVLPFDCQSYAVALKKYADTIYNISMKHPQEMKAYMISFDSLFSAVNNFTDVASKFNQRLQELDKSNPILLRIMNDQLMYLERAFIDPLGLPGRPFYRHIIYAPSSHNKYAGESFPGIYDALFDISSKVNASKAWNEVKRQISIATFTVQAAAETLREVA

In the case of `O=C(O)CCC(NC(=O)NC(CCCCNC(=O)c1ccc([18F])nc1)C(=O)O)C(=O)O` (stereo not shown) [[^18F]DCFPyL, 2-(3-{1-Carboxy-5-[(6-[18F]fluoro-pyridine-3-carbonyl)-amino]-pentyl}-ureido)-pen tanedioic acid], the “tracer uptake at the lesion site” value on PSMA [1] (3, 7, and 14 days after surgery, FIG. 11B) is “significantly increased”; at PSMA [2] (2, 7, and 14 days after CFA injection, FIG. 12B) it was “significantly increased”. The “tracer uptake at the contralateral side” value is reported as “little to no” on PSMA [1] (setting [3]) and “little to no” on PSMA [2] (10 MBq into tail vein, PET after 1 h, contralateral paw). In addition, the “tracer uptake in sham treated animals” value on PSMA [1] (setting [3]) is “little”. Besides, the “tracer uptake at the site of injury” value on PSMA [1] (10 MBq into tail vein, PET after 1 h, sciatic nerve lesion) is “high and strong enrichment”. For the same molecule, the “quantification of the uptake, increase over sham-operated controls” value on PSMA [1] (average, FIG. 6) is reported as 2-3 fold. The “tracer enrichment along the nerve plexus” value on PSMA [1] (neuropathic pain animals) is on record as “enrichment along the nerve toward the spinal cord”. Also, the “correlation of tracer uptake with pain sensitivity” value on PSMA [1] (setting [4]) and at PSMA [2] (setting [4]) was “significantly correlated” each time. Also, at PSMA [2] (10 MBq into tail vein, PET after 1 h, injected hindpaw), the “tracer uptake at the site of CFA injection” value was “high”. Moreover, the “enrichment at the side of CFA injection, increase over the contra-lateral side” value at PSMA [2] (FIG. 3) was about 2 fold. Also, the “quantification of the uptake, increase over controls” value on PSMA [2] (average, ratio ipsi-/contralateral, FIG. 3) is given as 2 fold.
